Reference: the METLIN SMRT retention time set (Domingo-Almenara et al. 2019)

Experiment: gradient 5% acetonitrile 3 min, to 50% in 2 min, to 85% in 15 min, held 3 min, 100 µL/min
Details: column: Zorbax Extend-C18 2.1 x 50 mm; eluents: water / acetonitrile, 0.1% formic acid
Method in brief: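 A Zorbax Extend-C18 column (2.1 × 50 mm, 1.8 μm) run at 100 μL/min with water and acetonitrile, both containing 0.1% formic acid, separated mixtures of ~100 pure standards. The HPLC was coupled to a quadrupole time-of-flight mass spectrometer operated in positive and negative ionization mode, with dead and dwell volumes of 40 μL and 900 μL. Each retention time was taken from a computationally picked adduct peak that was then manually inspected.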

RP-LC retention time | Structure (SMILES)
798 s | O=C(COc1ccc(Cl)cc1)Nc1nnc(SCC(=O)NC2CCCC2)s1
716 s | CCCn1ncc(N2CCC(C(=O)NC(C)c3cccs3)CC2)cc1=O (stereo not drawn)
792 s | O=C(Nc1cc(-c2ccsc2)no1)C1CC1
1110 s | Cc1ccc2nc(-c3ccc(NC(=O)c4cnc5sccn5c4=O)cc3)sc2c1
1090 s | Cc1cc(C(=O)NCc2cccc(F)c2)nc2cc(-c3cccs3)nn12
696 s | CCCS(=O)(=O)N1CCOc2ccc(NC(=O)NCC)cc2C1
619 s | CCOc1ccc(NS(=O)(=O)c2cc(C(=O)N3CCN(c4ccccn4)CC3)n[nH]2)cc1
744 s | CCc1ccccc1NC(=O)N1CCC(n2cnc3ccccc3c2=O)CC1
1040 s | CCCn1ccc2oc(C)c(C(=O)NC(C)c3ccc(F)cc3)c2c1=O (stereo not drawn)
670 s | CCOC(=O)c1ccc(NC(=O)N(Cc2cccs2)C2CCN(CC)CC2)cc1
852 s | Cc1ccc(NC(=O)COc2cc(C)nc(N3CCN(c4ccccc4)CC3)n2)cc1
808 s | CCc1ccc(NC(=O)N2CCC3(CC2)NC(=O)c2ccccc2N3C)cc1
838 s | Cc1ccc(C(CNC(=O)c2cc(-c3ccc4c(c3)CCCC4)on2)N2CCN(C)CC2)o1 (stereo not drawn)
772 s | COc1ccc(Cl)cc1NC(=O)Cn1c(N2CCOCC2)nc(C)cc1=O
832 s | Cc1ccc(CNC(=O)c2ncn3c2C(=O)N(C2CC2)C(C)(C(=O)NCc2ccc(C)cc2)C3)cc1 (stereo not drawn)
551 s | Cc1nccn1-c1ccc(=O)n(CCNC(=O)c2cccc(C(F)(F)F)c2)n1
1000 s | COc1cccc(-n2c(=O)c3sccc3n(Cc3nc(-c4ccccc4C)no3)c2=O)c1
869 s | Cc1nc(Nc2ccccc2)sc1C(=O)NC1CCCC1
873 s | COc1ccc(NC(=O)Cn2c(=O)n(-c3ccc(F)cc3)c(=O)c3c2cc(C)n3C)cc1Cl
1280 s | CC(C)(C)c1ccc(-c2noc(Cn3c(=O)n(-c4ccc(Cl)cc4)c(=O)c4sccc43)n2)cc1

RP-LC retention time | Structure (SMILES)
810 s | CN1C(=O)CCc2cc(NS(=O)(=O)c3ccc(Br)cc3)ccc21
588 s | CCOCCCNC(=O)CCc1c(-c2ccc(F)cc2)nc2ccccn12
659 s | COc1cccc(C(O)CN2CCN(c3cccc(OC)c3)CC2)c1 (stereo not drawn)
785 s | CC(=O)Nc1ccc(C2(C(=O)NCc3cccc(Cl)c3)CCC2)cc1
980 s | COc1cccc(-c2cc(=O)n3c4ccccc4n(CC(=O)Nc4ccc(F)cc4)c3n2)c1
988 s | CCOC(=O)c1noc2ncnc(N(C)Cc3ccccc3)c12
649 s | COc1ccc(C(=O)NCCc2nc3cccnc3n2C(C)C)cc1
773 s | CC(C)(CO)NS(=O)(=O)c1cc(-c2nnc(-c3ccccc3)o2)ccc1F
666 s | COc1ccc(NC(=O)C2CCN(c3nnc4ccccn34)CC2)cc1Cl
866 s | CCc1nn2c(CNC(=O)c3cccs3)c(-c3ccccc3)nc2s1
853 s | CCCCn1c(=O)c2ccccc2n(Cc2nc(-c3ccc(C)cc3)no2)c1=O
1110 s | COc1cccc(CN2CN(c3ccc(C)cc3)c3ncccc3S2(=O)=O)c1
1000 s | CCn1cc(-c2nc(C)c(C(=O)Nc3ccccc3F)s2)c2cccnc21
829 s | CCOC(=O)C1CCN(C(=O)c2nnc(-c3ccc(S(=O)(=O)N(C)C)cc3)o2)CC1
646 s | c1csc(Cc2nc(-c3ccc4c(c3)ncn4CCN3CCCCC3)no2)c1
807 s | CCSc1ccc(Cc2nnc(NC(=O)c3cccs3)o2)cc1
944 s | Cc1cccc(Oc2nccn3c(=O)n(CC(=O)NCCCc4ccccc4)nc23)c1C
795 s | COc1ccc(-c2cc(N3CCN(C(=O)c4ccc(C(C)(C)C)cc4)CC3)ncn2)cc1
743 s | CC(=O)c1ccc(NC(=O)Cn2ccc3ccc(-c4nnc(C)o4)cc32)cc1
900 s | COC(=O)c1ccc(NC(=O)C(=O)NC(C)Cc2cccs2)cc1 (stereo not drawn)

Continued, molecule first:

Structure (SMILES) | RP-LC retention time
COc1ccc(-c2cn3ccn(-c4ccc(F)c(Cl)c4)c(=O)c3n2)cc1 | 862 s
CC1CCC(NC(=O)c2nnc(-c3ccc(S(=O)(=O)N4CCC(C)CC4)cc3)o2)CC1 (stereo not drawn) | 1210 s
Cn1c(=O)n([C@H]2CCCN(S(=O)(=O)Cc3ccccc3)C2)c2ncccc21 | 827 s
Cc1nc(-c2noc(-c3ccccc3)n2)cn1CC(=O)N1CCc2ccccc21 | 860 s
Cn1cnc2c(C(=O)NC3CCCCCC3)nn(-c3ccccc3)c2c1=O | 910 s
CCCN1C(=O)COc2ccc(-c3noc(-c4ccc(C(F)(F)F)cc4)n3)cc21 | 1050 s
CCCCn1cc(S(=O)(=O)N2CCN(c3ccc(C)cc3)CC2)c2cccnc21 | 1220 s
CCc1ccc(-n2nnc3c(=O)n(Cc4nc(-c5ccccc5Cl)no4)cnc32)cc1 | 1120 s
Cc1ccc(NC(=O)c2cn(-c3cc(N4CCCC4)ncn3)cn2)c(C)c1 | 961 s
COc1ccccc1CCc1nc(C2CC(=O)N(c3ccc(F)c(Cl)c3)C2)no1 (stereo not drawn) | 1110 s
O=c1n(Cc2ccccc2Cl)nc2c(S(=O)(=O)N3CCOCC3)cccn12 | 774 s
CC1CCCN(C(=O)c2cn(-c3ccc(-c4nc(C(C)(C)C)no4)cn3)cn2)C1 (stereo not drawn) | 1080 s
CNC(=O)c1cc(N2CCOCC2)nc2ccc(F)cc12 | 590 s
Cc1cccc(N(C(=O)c2cnc3n(c2=O)CCS3)C2CCCCC2)c1 | 782 s
Cc1ncoc1C(=O)N1CCC(F)(F)C(COCC2CC2)C1 (stereo not drawn) | 789 s
O=C(c1ccccc1Br)N1CCN(c2nc(CN3CCCC3)cs2)CC1 | 627 s
O=S(=O)(c1ccc(Cl)cc1)N1CCc2nc(-c3ccc(Cl)cc3)ncc2C1 | 1270 s
Cc1ccccc1Nc1c(-c2cccc(Br)c2)nc2ccccn12 | 799 s
O=C(CN1CCCCC1c1nc(-c2ccc(F)cc2)no1)NC1CCCCC1 (stereo not drawn) | 1150 s
CC(CN1CC(=O)NC(=O)C1)N1CC(=O)NC(=O)C1 (stereo not drawn) | 530 s
Cc1cc2nc(C)c(=O)n(CC(=O)NCCN(C)C)c2cc1C | 583 s
CN1C(=O)C2(CCN(C(=O)c3ccccc3Cl)C2)c2ccccc21 (stereo not drawn) | 787 s
Cc1cc(=O)n(CC(=O)Nc2cccc(C)c2C)c(N2CCOCC2)n1 | 673 s
O=C1C(=O)N(Cc2ccc(C(=O)N3CCCCCC3)cc2)CCN1Cc1ccc(F)cc1 | 728 s

Structure (SMILES) | RP-LC retention time
O=C(CC1CCCC1)N1CCC(c2noc(-c3cnccn3)n2)C1 (stereo not drawn) | 726 s
CC(=O)N1CCCn2nc(-c3cccc(F)c3)cc2C1 | 722 s
O=C(COc1ccccc1)N1CCCC(c2n[nH]c(C3CC3)n2)C1 (stereo not drawn) | 637 s
CCc1ccccc1NC(=O)N1CCN(c2cc(C)nc(N3CCOCC3)n2)CC1 | 695 s
O=C(c1cn(-c2cc(N3CCSCC3)ncn2)cn1)N1CCC(Cc2ccccc2)CC1 | 1090 s
CCc1nc2cc(N3CCC(C(=O)N(C)Cc4ccco4)CC3)cnc2nc1CC | 755 s
O=C(CN1CCN(Cc2ccccc2F)C1=O)NCc1ccc(N2CCOCC2)cc1 | 699 s
COc1ccc(Cn2nc3ccc(S(=O)(=O)N4CCOCC4)cn3c2=O)cc1F | 811 s
CC(C)CC(=O)N1CCc2c(c(-c3nnc(-c4ccccc4Cl)o3)nn2C)C1 | 852 s
Cc1cc(N2C=C(C#N)S(=O)(=O)c3ccc(F)cc32)ccc1Br | 979 s
CCN1CCCn2cc(S(=O)(=O)Nc3cccc(Cl)c3)cc2C1=O | 770 s
Cc1cc(C)n(-c2ccc(C(=O)NCCCN3CCCC3=O)nn2)n1 | 637 s
O=C1/C(=C/c2ccc(Cl)c(Cl)c2)CN(C(=O)CCN2CCOCC2)C/C1=C\c1ccc(Cl)c(Cl)c1 | 881 s
O=C(NC1CCCCC1)C1CCN(S(=O)(=O)c2ccc3[nH]c(=O)sc3c2)CC1 | 765 s
Cc1noc(C)c1S(=O)(=O)N1CCC(OCCOCc2ccccc2)CC1 | 1020 s
Cc1ccc2[nH]c(=O)c(CCC(=O)NCCCN3CCc4ccccc4C3)cc2c1 | 629 s
CCCCNC(=O)CN1CCN(C(=O)c2sc3ncccc3c2-n2cccc2)CC1 | 647 s
CCOc1ccc(-c2cc3c(=O)n(Cc4nc(-c5ccc(C)cc5)no4)ccn3n2)cc1 | 1160 s
CCc1ccc(S(=O)(=O)c2cnc(N3CCN(c4ccccc4)CC3)nc2N)cc1 | 1140 s
CCOc1ccc(-c2nc3ncccn3c2NCc2ccccc2OC)cc1OC | 739 s
Cc1ccc(NC(=O)C(C)Oc2cc(C(F)(F)F)c3c(C)nn(C)c3n2)cc1C (stereo not drawn) | 586 s
Cc1ccc(CNC(=O)N2[C@H]3CC[C@@H]2c2cncnc2C3)cc1 | 735 s
O=C(NCCn1c(-c2ccccc2)nc2cccnc21)NCc1ccc(F)cc1 | 684 s
CCCCc1cc(=O)oc2cc(C)cc(OC(C)C(=O)N3CCC4(O)CCCCC4C3)c12 (stereo not drawn) | 952 s
